According to patent US6893821B2, “Agents that modulate DNA-PK activity and methods of use thereof” (The Regents of the University of California, priority 2000, dated 2005):

Tests used:
DNA-PK [1] = experiment: DNA-PK activity in treated BMDM by immune-complex kinase assay; assay type: cell-based, mice; conditions: DNA-PKcs-deficient BMDM
Procedure: (§1) Kinase assays and immunoblotting were performed according to Li et al. ((1999) J. Exp. Med. 189:1839-1845). Briefly, BMDM were treated with ISS-ODN (5 μg/ml), M-ODN (5 μg/ml) on ps and po backbones as indicated, LPS-free bacterial DNA or methylated bacterial DNA (5 μg/ml), LPS-free calf thymus DNA (5 μg/ml), LPS (10 μg/ml) or TNFα (10 ng/ml) for the indicated time periods. Cell lysates were prepared and normalized by immunoblotting (IB) with anti-IKKα polyclonal antibodies (Santa Cruz, Santa Cruz Biotech Inc., Calif.), anti-IKKβ polyclonal antbodies (Santa Cruz) or anti-DNA-PKcs monoclonal antibodies (NeoMarker, Calif.). IκB kinase (IKK) complex or DNA-PK complex from 100 μg of the lysates were immunoprecipitated by anti-IKKα or by anti-DNA-PKcs antibodies. The kinase activities (KA) were determined by a kinase assay using the N-terminus of IκBα (for IKK) or the N-terminus of p53 (for DNA-PK) as a substrate as previously described. Wang et al. (1992) Proc. Natl. Acad. Sci. USA 89:4231-4235; Li et al.(1999), supra; and Hammarsten et al. (2000) J. Biol. Chem. 275:1541-1545.
(§2) To further determine whether ISS-ODN, po-ISS-ODN or bacterial DNA activate DNA-PK in cells, we treated BMDM from either wt or DNA-PKcs-deficient mice with ISS-ODN, po-ISS-ODN, bacterial DNA or LPS as a control.

DNA-PK [2] = biological target: T1, DNA-PK (Mus musculus, UniProt P23475+P27641+P97313); experiment: as above; assay type: cell-based, mice; conditions: wt BMDM
T1 construct: endogenous in cells; host or cells: mouse bone marrow-derived macrophages (BMDM)
Procedure: as §1, §2

IKKα = experiment: In vitro IKK kinase assay: recombinant IKKα incubated with DNA-PK with ISS-ODN; assay type: biochemical; conditions: IKKα incubated with DNA-PK in the presence of ISS-ODN; not beyond DNA-PK alone
Procedure: (§3) The ODNs (ps-ss) used include an ISS-ODN with an active CpG motif (AACGTT), a methylated ISS-ODN at the ^5C of the CpG dinucleotide (AA*CGTT) and various control ODNs. These ODNs were incubated at concentrations of 0, 0.1, 0.3, or 1 ng/reaction. The po-ISS-ODN was incubated at concentration of 20, 50 or 100 ng/reaction. The po-ds-ISS-ODN was incubated at concentration of 0, 0.5, 1, 2, 5 or 10 ng/reaction. The bacterial or calf thymus DNAs were each incubated at concentration of 1, 2 or 5 ng/reaction. Electrophoretic gel mobility shift assay (EMSA) was performed as previously described. Chu et al. (1999) Immunity 11:721-731; and Li et al., 1999, supra). In vitro IKK kinase assays were performed using purified IKK derived from Sf9 insect cell lysates as was previously described. Zandi et al. (1998) Science 281:1360-1363.
To explore a role of ISS-activated DNA-PK in IKK activation we tested whether affinity-purified DNA-PK can directly activate recombinant IKKα or IKKβ purified from Sf9 cells (Zandi et al., 1998, supra). […] Furthermore, although DNA-PKcs phosphorylated IκBα that activity was considerably lower than that achieved by IKKβ plus DNA-PK. […] Recombinant IKKβ was pre-incubated with DNA-PK in the presence or absence of ISS-ODN followed by immunoprecipitation of IKKβ and IκB kinase activity was measured. […] We next determined whether DNA-PK phosphorylates IKKβ.

DNA-PK [3] = biological target: T2, DNA-PK (Homo sapiens, UniProt P12956+P13010+P78527); experiment: In vitro DNA-PK phosphorylation assay (affinity-purified DNA-PK, GST-p53 (1-70) substrate); assay type: biochemical; conditions: 30° C., 30 minutes; ps-ss ODNs 0-1, po-ISS-ODN 20-100, po-ds-ISS-ODN 0-10, genomic DNAs 1-5 ng/reaction
T2 construct: purchased Promega
Procedure: The in vitro DNA-PK phosphorylation assay was performed according to Hammarsten et al. (2000), supra, with modification. Briefly, affinity-purified DNA-PK (Promega, Mo.) was incubated with various DNA preparations (described below), 0.5 μg of GST-p53 (1-70) and 3.3 μCi of γ-^32p-ATP in a 20 μl reaction buffer (10 mM Tris-Cl, 5 mM MgCl2, 0.3 mM EDTA and 10 μM ATP) at 30° C. for 30 minutes. The reaction was stopped by addition of 4× loading buffer. The samples were boiled, loaded on 9% SDS-PAGE, transferred onto a PVDF membrane and visualized by autoradiography.
as §3

- time of peak DNA-PK activity (DNA-PK [2]): 1 h
- DNA-PK activity in cells (DNA-PK [2]; 30-minute incubation): Considerable DNA-PK activity
- IκB kinase activity of IKKα (IKKα): Only a small enhancement
- DNA-PK activity in vitro (phosphorylation of the N-terminal portion of p53) (DNA-PK [3]): stimulated DNA-PK activity
Substance: 5′-TGACTGTGAACGTTCGAGATGA-3′ [ISS-ODN]
- DNA-PK activity in cells (DNA-PK [1]): Little or no DNA-PK activity
